According to the OPERA property sets (Mansouri et al. 2018):

Compound: CNC(=S)NCCCCc1nc[nH]c1C
- logP: 0.85

Compound: COc1ccc2cc(C(C)C(=O)Oc3ccccc3)ccc2c1 (stereo not given)
- logP: 5.17

Compound: CCC(C(=O)OCCc1ccccc1)C(CO)Cc1cncn1C (stereo not given)
- logP: 2.31

Compound: CN1C(CSCC(F)(F)F)Nc2cc(Cl)c(S(N)(=O)=O)cc2S1(=O)=O (stereo not given)
- logP: 1.9

Compound: COC(=O)Nc1nc2cc(C(=O)c3ccccc3)ccc2n1C(=O)OC
- logP: 2.47

Compound: CCOC(=O)c1cnc2n(c1=O)CC(C)CC2 (stereo not given)
- logP: 0.71

Compound: CCc1c(O)c(=O)ccn1CCO
- logP: -0.66

Compound: CC(=O)N1CCCC1=O
- logP: -0.05

Compound: COC(=O)NC1=NCC(c2ccc(Cl)cc2)N1C (stereo not given)
- logP: 2.17

Compound: CC(C(=O)O)N(C(=O)c1ccccc1)c1ccc(F)c(Cl)c1 (stereo not given)
- logP: 2.9

Compound: Nc1ncn(C2OC(CO)C(O)C2O)c(=O)n1 (stereo not given)
- logP: -2.17

Compound: CCCN1CCOC2c3cc(O)ccc3OCC21 (stereo not given)
- logP: 1.97

Compound: CCC1(O)CC2CN(CCc3c([nH]c4ccccc34)C(C(=O)OC)(c3cc4c(cc3OC)N(C)C3C(O)(C(=O)OC)C(OC(=O)CN(C)C)C5(CC)C=CCN6CCC43C65)C2)C1 (stereo not given)
- logP: 4.02

Compound: CCCCC1C(=O)NC(=O)N(C)C1=O (stereo not given)
- logP: 1.1

Compound: CCCc1ccc(OCC(OC(=S)n2ccnc2)C(C)(C)C)cc1 (stereo not given)
- logP: 5.77

Compound: NS(=O)(=O)c1ccc(S(=O)(=O)CCCO)c([N+](=O)[O-])c1
- logP: -0.05

Compound: O=C(O)c1cc([N+](=O)[O-])cc([N+](=O)[O-])c1O
- logP: 1.71

Compound: CCCCCC(C)N (stereo not given)
- logP: 2.4

Compound: COc1cc(S(C)=O)ccc1-c1nc2ncc(N)cc2[nH]1 (stereo not given)
- logP: 0.33

Compound: CCOCCCn1ccc(=O)c(O)c1C
- logP: 0.12

Compound: Cc1c(C(C)C)c(=O)n(-c2ccccc2)n1C
- logP: 1.94

Compound: CC1NC(=O)NC1=O (stereo not given)
- logP: -0.91

Compound: COc1cc(C(N)=O)ccc1-c1cn2cccnc2n1
- logP: 0.7

Compound: CC(C)Cc1ccc(CC(=O)O)cc1
- logP: 3.35

Compound: Cc1[nH]cnc1CSCCNc1[nH]ccc1[N+](=O)[O-]
- logP: 1.04

Compound: Clc1cc(Cl)cc(-c2cc(Cl)cc(Cl)c2)c1
- logP: 6.6

Compound: CCN(C)C(=O)c1cccc(Oc2ccccc2)c1
- logP: 2.98

Compound: COc1ncnc(NS(=O)(=O)c2ccc(N)cc2)c1OC
- logP: 0.7

Compound: Nc1ccc(C(=O)O)cc1I
- logP: 2.36

Compound: CSc1nnc(C2CCOCC2)c(=O)n1N
- logP: 1.07

Compound: CCN(CC)C(=O)Nc1ccc(OCC(O)CNC(C)(C)C)c(C(C)=O)c1 (stereo not given)
- logP: 1.92

Compound: Clc1ccccc1
- logP: 2.84

Compound: CC(=O)c1ccc2c(c1)N(CCCN1CCN(CCO)CC1)c1ccccc1S2
- logP: 2.62

Compound: CN(C)C(=O)OCc1ccc(C(N)=O)cc1
- logP: 0.77

Compound: CC(=O)n1c(=O)[nH]cc(F)c1=O
- logP: -0.34

Compound: COc1cc(NS(=O)(=O)c2ccc(N)cc2)ncn1
- logP: 0.7

Compound: NC(=S)c1ccc(Cl)cc1
- logP: 2.4

Compound: Cn1c(S)nnc(-c2ccc(OC(F)(F)F)c(Cl)c2)c1=O
- logP: 3.61

Compound: NS(=O)(=O)c1ccc2c(c1)S(=O)(=O)NC(C(Cl)Cl)N2 (stereo not given)
- logP: 0.51

Compound: CCOC(=O)C1=C(C)NC(C)=C(C(=O)OC)C1c1cccc(Cl)c1Cl (stereo not given)
- logP: 3.86

Compound: C=C1C(=O)OC2C1CCC(C)C1(O)CCC(=O)C21C (stereo not given)
- logP: 0.83

Compound: COC(=O)NC1=NCC(c2ccccc2Cl)N1C (stereo not given)
- logP: 2.08

Compound: CN(C)C(=O)NCCCCn1nc(-c2ccccc2)ccc1=O
- logP: 1.58

Compound: O=C(NN1CC=CCC1)C1CC1
- logP: 1.12

Compound: C=CC12COC(=O)C(=C)C1C1OC(=O)C(=C)C1C(OC(=O)C(=C)C)C2 (stereo not given)
- logP: 1.56

Compound: NNC(=O)c1ccc2c(c1)OCO2
- logP: 1.16

Compound: CCCCCCN(C)C(=O)c1cccc(Oc2ccccc2)c1
- logP: 5.01

Compound: Cc1ccc(C=O)o1
- logP: 0.67

Compound: CNC(=C[N+](=O)[O-])NCCSCc1nc[nH]c1C
- logP: -0.4

Compound: Nc1c(Cl)cc(Cl)cc1Cl
- logP: 3.52

Compound: CC(C)(C)NCC(O)COc1cccc2c1C[C@H](O)[C@H](O)C2 (stereo not given in full)
- logP: 0.81

Compound: CNC(=O)NCCCn1nc(-c2ccccc2)ccc1=O
- logP: 1.16

Compound: CC1=C(C)C(=O)C(Cc2cccnc2)=C(C)C1=O
- logP: 2.55

Compound: NCc1ccccc1Sc1ccccc1CO
- logP: 2.39

Compound: CC(C)(C)C(COc1ccc(Br)cc1)OC(=S)n1ccnc1 (stereo not given)
- logP: 5.11

Compound: Cc1cccc(C)c1C(=O)CCN1CCCCC1
- logP: 3.53

Compound: O=C1CC2(CCCC2)C(=O)N1Oc1ccccc1
- logP: 1.77

Compound: CCCCCCn1ccc(=O)c(O)c1CC
- logP: 2.28

Compound: O=C1c2ccccc2C(=O)C1c1cccc(Cl)c1
- logP: 3.61

Compound: CCC(=O)O[C@]1(C(=O)CCl)[C@@H](C)C[C@H]2[C@@H]3CCC4=CC(=O)C=C[C@]4(C)[C@@]3(F)[C@@H](O)C[C@@]21C
- logP: 3.5

Compound: Cn1c([N+](=O)[O-])cnc1C1CC1
- logP: 1

Compound: CCNP(=O)(OCC)ON=C(C#N)c1ccc([N+](=O)[O-])cc1 (stereo not given)
- logP: 1.76

Compound: Nc1nc(NCC(O)CO)c(Cl)nc1[N+](=O)[O-] (stereo not given)
- logP: -0.22

Compound: CCCN1CCOC2c3cccc(O)c3OCC21 (stereo not given)
- logP: 1.93

Compound: Cc1ccccc1C(=O)C(C)CN1CCCCC1 (stereo not given)
- logP: 3.69

Compound: NS(=O)(=O)c1cc2c(cc1Cl)N=C(Cc1ccccc1)NS2(=O)=O
- logP: 1.7

Compound: CCOC(=O)C1=CNC2CCCCN2C1=O (stereo not given)
- logP: 0.57

Compound: Nc1c(Cl)c(Cl)cc(Cl)c1Cl
- logP: 4.1

Compound: CC(C)(CN1CCCCC1)C(=O)c1ccccc1
- logP: 3.78

Compound: OC(Cn1ccnc1)(c1cccc(Br)c1)c1ccc(F)cc1F (stereo not given)
- logP: 3.6

Compound: Nc1nc(=O)c2[nH]c(N)c(Cc3ccsc3)c2[nH]1
- logP: 1.08

Compound: CC(=O)OC(CNC(C)C)COc1cccc2ccccc12 (stereo not given)
- logP: 4.34

Compound: NCCc1cn2ccccc2n1
- logP: 0.59

Compound: CCC(O)C(CC(C)N(C)C)(c1ccccc1)c1ccccc1 (stereo not given)
- logP: 4.27

Compound: CCCC(=NOCC)C1C(=O)CC(c2ccccc2)(c2ccccc2)OC1=O (stereo not given)
- logP: 4.75

Compound: CCCNC(=O)c1ccco1
- logP: 1.1

Compound: O=C(O)c1cccc(Cl)n1
- logP: 1.5

Compound: COc1ccc(OCC(OC(=S)n2ccnc2)C(C)(C)C)cc1 (stereo not given)
- logP: 4.31

Compound: N[C@H]1CCc2ccccc2[C@H]1O
- logP: 0.86

Compound: COC(=O)c1ccccc1O
- logP: 2.55

Compound: CCOC(=O)C1(c2ccccc2)CCN(CCC(O)c2ccccc2)CC1 (stereo not given)
- logP: 4.04

Compound: CSc1ncnc2c1ncn2[C@@H]1O[C@H](CO)[C@@H](O)[C@H]1O
- logP: 0.09

Compound: C[C@@H]1O[C@@H](O[C@@H]2C=C3CC[C@@H]4[C@H](CC[C@]5(C)[C@@H](c6ccc(=O)oc6)CC[C@]45O)[C@@]3(C)CC2)[C@H](O)[C@H](O)[C@H]1O
- logP: 2.48

Compound: CCOCCCn1ccc(=O)c(O)c1CC
- logP: 0.72

Compound: CCCCCCCCOc1ccc(NC(=O)OCCN2CCOCC2)cc1
- logP: 4.8

Compound: CC(O)Cn1cnc2c1c(=O)n(C)c(=O)n2C (stereo not given)
- logP: -0.77

Compound: O=C1CNC(=O)N1Cc1ccccc1
- logP: 0.82

Compound: CCCCCCCCn1ccc(=O)c(O)c1C
- logP: 2.88

Compound: OC(Cn1ccnc1)(c1ccccc1)c1ccc(Br)cc1 (stereo not given)
- logP: 3.35

Compound: Cc1cc2c(cc1S(N)(=O)=O)S(=O)(=O)NC=N2
- logP: -0.32

Compound: CCC12CCN(CC3(O)CC3)C(Cc3ccc(O)cc31)C2(C)C (stereo not given)
- logP: 3.82

Compound: CCN1CCc2nc(N)oc2CC1
- logP: 0.05

Compound: CCOC(=O)CN(C(=O)CCl)c1ccccc1OC(C)C
- logP: 2.75

Compound: O=C(O)Cn1nnc2ccccc21
- logP: -1.88

Compound: O=c1c2c(nc3n1CCC3)CCCC2
- logP: 0.83

Compound: Oc1ccc(C(O)(Cn2ccnc2)c2ccc(-c3ccncc3)cc2)cc1 (stereo not given)
- logP: 2.49

Compound: CC1CCC2C(C)C(O)OC3OC4(C)CCC1C32OO4 (stereo not given)
- logP: 2.19

Compound: CNC(=O)NC(=O)C(C)(C(=O)OCOC)C1=CCCCC1 (stereo not given)
- logP: 1.8

Compound: OC1CCN(Cc2cccc(COc3ccccc3)c2)CC1
- logP: 2.77

Compound: OC(CN1C2CCCCCC21)Cn1ccnc1 (stereo not given)
- logP: 1.44

Compound: CC(C)(C)c1ccc(C2CCCC(O)C2)c(O)c1 (stereo not given)
- logP: 4.05

Compound: CCCCN(C)N=Nc1ccc(C(N)=O)cc1
- logP: 2.46

Compound: Nc1cccc(C(=O)O)c1
- logP: 0.65

Compound: CCNC1C2CCC(C2)C1c1ccccc1 (stereo not given)
- logP: 3.2

Compound: CCN(CC)CCCN1c2ccccc2Sc2ccc(Cl)cc21
- logP: 6.46

Compound: NC(=O)Nc1ccc(Cl)c(Cl)c1
- logP: 2.65

Compound: CCC(C(=O)OCc1ccc(Cl)cc1)C(CO)Cc1cncn1C (stereo not given)
- logP: 2.69

Compound: CCOC(=O)c1cnc2n(c1=O)C(C)CCC2 (stereo not given)
- logP: 0.62

Compound: CCN(CC)C(=O)c1ccccc1C
- logP: 2.02

Compound: CCCN(C)CC(F)(F)F
- logP: 2.18

Compound: N=C(N)N1CCc2ccccc2C1
- logP: 0.75

Compound: NCCCCN
- logP: -0.7

Compound: CCOC(=O)NC1=NCC(c2ccc(F)cc2)N1C (stereo not given)
- logP: 1.9

Compound: Cc1ccc(C)c(Oc2cccc(C(=O)NC(C)(C)C)c2)c1
- logP: 4.78

Compound: Nc1cc([N+](=O)[O-])ccc1O
- logP: 1.26

Compound: CN(C)C(=O)n1cc(F)c(=O)[nH]c1=O
- logP: -0.37

Compound: CC=COCC(O)Cn1ccnc1[N+](=O)[O-] (stereo not given)
- logP: 0.28

Compound: CC(C)OC(=O)C(C(=O)OC(C)C)=C1SC=CS1
- logP: 3.75

Compound: NC1C2CCC1c1ccc(C(F)(F)F)cc1C2 (stereo not given)
- logP: 3.54

Compound: CNC(=O)c1cccc(Oc2ccccc2)c1
- logP: 2.86

Compound: CN1CC(O)CN(C)C1=Nc1ncc([N+](=O)[O-])s1 (stereo not given)
- logP: 0.16

Compound: Cn1c([N+](=O)[O-])cnc1COC(N)=O
- logP: -0.38

Compound: C=C[C@H]1CN2CCC1C[C@@H]2[C@@H](O)c1ccnc2ccccc12 (stereo not given in full)
- logP: 2.68

Compound: CNc1nc(C)c(C(=O)CCN2CCCC2)s1
- logP: 1.86

Compound: Nc1c(Cl)cccc1Cl
- logP: 2.76

Compound: CCOP(=O)(O)Cc1ccc(Cl)cc1
- logP: 1.6

Compound: CN1C(=O)C(C)(C2=CCCCC2)C(=O)N=C1O (stereo not given)
- logP: 1.98

Compound: CC(n1ccnc1)C(O)(c1ccc(F)cc1)c1ccc(F)cc1 (stereo not given)
- logP: 3.13

Compound: CC(=O)Nc1nc(=O)cc(-c2ccc([N+](=O)[O-])o2)s1
- logP: 1.01

Compound: CCC1(c2ccccc2)NC(=O)N(C)C1=O (stereo not given)
- logP: 1.69

Compound: COc1ccc2c3c1O[C@H]1[C@@H](O)C=C[C@H]4[C@@H](C2)N(C)CC[C@@]341.O=P(O)(O)O
- logD (pH 7.4): -1.4

Compound: CCCc1c(C)nc2ccccn2c1=O
- logP: 1.75

Compound: COC(=O)C(C#N)=Cc1ccc(SC)o1
- logP: 2.61

Compound: OC(Cn1ccnc1)(c1ccc(F)cc1)c1ccc(Br)cc1 (stereo not given)
- logP: 3.42

Compound: CCC(C(=O)OCc1ccc(C)cc1)C(CO)Cc1cncn1C (stereo not given)
- logP: 2.46

Compound: CCOC(=O)NC1=NCC(c2ccc(CO)cc2)N1C (stereo not given)
- logP: 0.84

Compound: Cc1c(O)c(=O)ccn1C(C)C
- logP: 0.05

Compound: Cc1onc(-c2c(F)cccc2Cl)c1C(=O)NC1C(=O)N2C1SC(C)(C)C2C(=O)O (stereo not given)
- logP: 2.58

Compound: CC(C)(C)C(COc1ccc(C#N)cc1)OC(=O)n1ccnc1 (stereo not given)
- logP: 3.15

Compound: CC(C)c1cccc(C2C(=O)c3ccccc3C2=O)c1
- logP: 4.43
